Test results reported in the NIST ThermoML archive (doi:10.1016/j.jct.2013.08.022).
“And” between values parts separate entries of the source, which are not always exact repeats. Equal entries are not always repeated. Numbers after ± are expanded uncertainties.

Conditions: Crystal, Closed cell (Static) method

c1ccccc1 [benzene]
Conditions	vapor or sublimation pressure
233.2 K	0.09891 ± 0.002 kPa and 0.09902 ± 0.002 kPa and 0.09885 ± 0.002 kPa
235.7 K	0.1277 ± 0.0025 kPa
238.21 K	0.1641 ± 0.0027 kPa
240.7 K	0.2093 ± 0.0033 kPa and 0.2094 ± 0.0033 kPa and 0.2095 ± 0.0033 kPa
243.2 K	0.2655 ± 0.004 kPa and 0.2656 ± 0.004 kPa
245.68 K	0.3351 ± 0.0049 kPa and 0.3352 ± 0.0049 kPa and 0.335 ± 0.0049 kPa
248.18 K	0.4206 ± 0.0059 kPa and 0.4205 ± 0.0059 kPa
250.68 K	0.5253 ± 0.0073 kPa and 0.5257 ± 0.0073 kPa
253.17 K	0.6533 ± 0.0089 kPa and 0.6532 ± 0.0089 kPa and 0.6543 ± 0.0089 kPa
255.67 K	0.8095 ± 0.011 kPa and 0.8096 ± 0.011 kPa and 0.8092 ± 0.011 kPa
258.16 K	0.9997 ± 0.013 kPa and 0.9995 ± 0.013 kPa and 0.9994 ± 0.013 kPa
260.68 K	1.231 ± 0.016 kPa and 1.229 ± 0.016 kPa
